Measurements published in patent publication US6774263B1, “Pharmaceutically active compound and methods of use” (Cambridge Neuroscience, Inc., priority 1997, dated 2004).
Counter-ions that a name gives are not always drawn.

How the values were obtained:
rats [1] = assay: Irwin general behavior screen; format: in vivo, rat; conditions: times in minutes
From the text: See S. Irwin, Animal and Clinical Pharmacologic Techniques in Drug Evaluation, pages 36-54 (Year Book Medical Publishers, Chicago), which details the protocol of the Irwin behavior screen.

rat pups = assay: Rat pup hypoxia-ischemia model; format: in vivo
Experimental: A. The hydrochloride salt of (±)-N-(2-chloro-5-methylthiophenyl)-N′-(3-methylsulfinylphenyl)-N′-methylguanidine was tested in the rat pup hypoxia-ischemia model with % reduction in total lesion volume determined at the specified test dose. A rat pup hypoxia-ischemia assay protocol of the following protocol was employed.
8 day-old rat pups weighing 17-23 grams were anaesthetized with isoflurane and the left common carotid artery ligated. Immediately prior to the hypoxia-ischemia (H-I) insult a test group of animals was injected intraperitoneally with 2 mg/kg, 5 mg/kg or 10 mg/kg of the test compound and a control group was treated with a corresponding dose of mannitol. Then, immediately after the H-I insult, the animals received a second equivalent dose, i.e. the test group of animals was injected intraperitoneally with 2 mg/kg (total 4 mg/kg administered in the two doses), 5 mg/kg (total 10 mg/kg administered in the two doses) or 10 mg/kg (total 20 mg/kg administered in the two doses) of the test compound and a control group was treated with a corresponding dose of mannitol. The animals were then allowed to recover for 1-2 hours and then exposed to 7.8% O2 in nitrogen for 78 minutes in an incubator at 36.5° C. The rat pups were returned to mothers immediately after the H-I insult. The animals were sacrificed two days after H-I insult, their brain was removed and cut into four 2 mm thick slices prior to staining with 2% 2,3,5-triphenyltetrazolium chloride (TTC) solution. The sections were then fixed with 4% paraformaldehyde solution in the dark at 4° C. for at least 48 hours. Four sections from each brain were imaged and analyzed using the IPLab system. The lesion area which was not stained red with TTC was measured as infarction.
B. The acetate salt of (+)-N-(2-chloro-5-methylthiophenyl)-N′-(3-methylsulfinylphenyl)-N′-methylguanidine was also tested in the rat pup hypoxia-ischemia model with % reduction in total lesion volume determined by the same protocol as specified in Part A above, except the rat pups were exposed to 7.8% O2 in nitrogen for 85 minutes.

rats [2] = assay: Rat rotarod motor coordination test; format: in vivo
Experimental: The effects of the hydrochloride salt of (t)-N-(2-chloro-5-methylthiophenyl)-N′-(3-methylsulfinylphenyl)-N′-methylguanidine (compound (I)) on motor coordination were assessed using the rotarod test. Drug solutions were administered i.v. through the tail vein of test rats in a volume of 5.0 ml/kg at a rate of 1 ml/min. The percentage of animals in each treatment group that fell from the rotarod at each of the four time points tested is summarized in the following Table I. Control was 20% C.D. N in each of the Tables below specifies the number of animals in each test group.
The latency for falling from the rotarod was statistically analyzed using analysis of variance (ANOVA), and a Neumann Keuls post-hoc was applied when appropriate. […] In FIG. 1, “**” designates P<0.01 and “***” designates P<0.001.
(§1) The acetate salt of (−)-N-(2-chloro-5-methylthiophenyl)-N′-(3-methylsulfinylphenyl)-N′-methylguanidine was also tested in the same rotarod assay protocol as described in Part A above. Drug solutions were administered i.v. through the tail vein in a volume of 5 ml/kg at a rate of 1 ml/min. In Table II, Control (1) is 60 mM Acetate Buffer in 0.3M mannitol at 0.06 and 0.125 mg/kg doses and Control (2) is 60 mM Acetate Buffer in 0.3M mannitol at 0.25 and 0.5 mg/kg doses.
as §1, with “(+)-N-(2-chloro-5-methylthiophenyl)-N′-(3-methylsulfinylphenyl)-N′-methylguanidine” for “(−)-N-(2-chloro-5-methylthiophenyl)-N′-(3-methylsulfinylphenyl)-N′-methylguanidine”, “III,” for “II,”
The results for compounds of the invention can be compared to those obtained for MK-801, i.e. (+)-5-methyl-10,11-dihydro-5H-dibenzo[a,d]cyclohepten-5,10-imine maleate. In the rotarod test for MK-801, drug solutions were administered i.v. through the tail vein of each test rat in a volume of 5 ml/kg at a rate of 1 ml/min. The control was 0.9% saline solution.

rats [3] = assay: Rat MCAO ischemia model; format: in vivo; conditions: in thirds at 10 min, 1 h and 2 h
Experimental: A. The hydrochloride salt of (±)-N-(2-chloro-5-methylthiophenyl)-N′-(3-methylsulfinylphenyl)-N′-methylguanidine (compound (I)) was tested in the rat MCAO ischemia model with % reduction in total lesion volume (mm^3) determined by the following protocol.
Rats were anaesthetized with isoflurane and focal ischemia was induced by directly ligating the main trunk of MCA using a bipolar electrocoagulor. Coronal sections (seven sections, 2.0 mm intervals) were collected and incubated in 2,3,5-triphenyltetrazolium chloride (TTC) solution for 15 minutes at 37° C., then fixed in 4% paraformaldehyde solution in the dark at 4° C. for at least 48 hours. Seven sections of each brain were photographed and analyzed. The areas that were not stained red with TTC were measured as infarction.
The test animals were treated with the test compound and control (mannitol) as follows. Ten minutes after the MCAO incident the test animals were administered (i.v. infusion/10 minutes) with one third of the total dose of the test compound (total doses specified below); 1 hour after that first dosing the test animals were given another one third of the total dose of the test compound; and then 2 hours after that first dosing the test animals were given another one third of the total dose of the test compound. Mannitol was administered to the control group at the first dosing only.
Sprague-Dawley rats with body weights of 270-320 grams were used in the study.

mouse = conditions: in vivo; cited from earlier work
[4] = cited from earlier work
[5] = total dose 2.25 mg/kg i.v. infusion
[6] = total dose 4.5 mg/kg i.v. infusion, 4.5 mg/kg
[7] = total dose 9 mg/kg i.v. infusion, 9 mg/kg

**Q.** With `CSc1ccc(Cl)c(NC(=N)N(C)c2cccc([S+](C)[O-])c2)c1` (racemic) [compound (I), N-(2-chloro-5-methylthiophenyl)-N′-(3-methylsulfinylphenyl)-N′-methylguanidine] as the compound, how does the “behavioral effects observed in Irwin screen” value (rats [1]; 4 mg/kg i.v.) read?
**A.** excitation (120-180′) sterotypies (sniffing 60-180′) fore-paw treading (120′) loss of traction (2 of 3, 120′)

**Q.** What about the “behavioral effects observed in Irwin screen” value (rats [1]; 16 mg/kg i.v.) of the same compound?
**A.** excitation (30-180′) sterotypies (head-weaving to 180′) fore-paw treading (to 180′) loss of traction (to 180′) hypothermia

**Q.** What about the “% reduction in total lesion volume” value (rat pups; i.p. total dose of 10 mg/kg, 7.8% O2 for 78 minutes) of the same compound?
**A.** 60%

**Q.** What about the “% reduction in total lesion volume” value (rat pups; i.p. total dose of 20 mg/kg, 7.8% O2 for 78 minutes) of the same compound?
**A.** 100%

**Q.** What about the “lethality of pre-testing doses” value (rats [2]; rat, in vivo) of the same compound?
**A.** lethal

**Q.** What about the “% reduction in total lesion volume” value (rats [3]; [5]) of the same compound?
**A.** 24%

**Q.** And the “% reduction in total lesion volume” value (rats [3]; total dose 4.5 mg/kg i.v. infusion)?
**A.** 32%

**Q.** What about the “% reduction in total lesion volume” value (rats [3]; total dose 9 mg/kg i.v. infusion) of the same compound?
**A.** 46%

**Q.** What does the source list for `CSc1ccc(Cl)c(NC(=N)N(C)c2cccc([S+](C)[O-])c2)c1` (single isomer, unassigned; (+)) [compound (IB), (+)-N-(2-chloro-5-methylthiophenyl)-N′-(3-methylsulfinylphenyl)-N′-methylguanidine]?
**A.** % reduction in total lesion volume (rat pups; i.p. total dose of 10 mg/kg, 7.8% O2 for 85 minutes): 78%; % reduction in total lesion volume (rat pups; i.p. total dose of 20 mg/kg, 7.8% O2 for 85 minutes): 93%; latency for falling from the rotarod (falling times) (rats [2]; rat, in vivo): no statistically significant differences; latency for falling from the rotarod vs control groups (rats [2]; rat, in vivo): significantly shorter latencies; % reduction in total lesion volume (rats [3]; [5]): 23%; % reduction in total lesion volume (rats [3]; [6]): 32%; % reduction in total lesion volume (rats [3]; [7]): 34%

**Q.** For `CSc1ccc(Cl)c(NC(=N)N(C)c2cccc([S+](C)[O-])c2)c1` (single isomer, unassigned; (-)) [compound (IA), (−)-N-(2-chloro-5-methylthiophenyl)-N′-(3-methylsulfinylphenyl)-N′-methylguanidine], which “latency for falling from the rotarod (falling times)” value (rats [2]; rat, in vivo) is on record?
**A.** no statistically significant differences

**Q.** And the “latency for falling from the rotarod vs control groups” value (rats [2]; rat, in vivo)?
**A.** significantly shorter latencies

**Q.** What about the “% reduction in total lesion volume” value (rats [3]; [6]) of the same compound?
**A.** 1%

**Q.** And the “% reduction in total lesion volume” value (rats [3]; [7])?
**A.** 22%

**Q.** What does the source list for `C[C@]12N[C@H](Cc3ccccc31)c1ccccc12` [MK-801, (+)-5-methyl-10,11-dihydro-5H-dibenzo[a,d]cyclohepten-5,10-imine maleate]?
**A.** activity in mouse audiogenic tests (mouse): good activity; percentage of animals that fell from the rotarod (rats [2]; 0.01 mg/kg i.v., 15 min.): 38%; percentage of animals that fell from the rotarod (rats [2]; 0.01 mg/kg i.v., 60 min.): 13%; percentage of animals that fell from the rotarod (rats [2]; 0.01 mg/kg i.v., 120 min.): 25%; percentage of animals that fell from the rotarod (rats [2]; 0.05 mg/kg i.v., 15 min.): 86%; percentage of animals that fell from the rotarod (rats [2]; 0.05 mg/kg i.v., 60 min.): 57%; percentage of animals that fell from the rotarod (rats [2]; 0.05 mg/kg i.v., 120 min.): 29%; results in in vivo models of stroke [4]: good results
